Data reported in patent publication US9211244B2, “Method for anti-skin aging using caffeamide derivative” (CHINA MEDICAL UNIVERSITY, priority 2013, dated 2015).

Columns and labels:
[1] = Scavenging test of DPPH free radical; format: biochemical; settings: for Scavenging efficiency (%): 200 μM DPPH, 30 minutes
Procedure: DPPH (1,1-diphenyl-2-picrylhydrazyl) was used as a source of free radicals to examine the scavenging efficiency of the caffeamide derivatives prepared in Example 1 on free radicals. […] The mixtures were placed in the dark at room temperature for 30 minutes and its absorbance at 517 nm was measured by an enzyme immunoassay analyzer. In this experiment, 50 volume % propanediol was used to replace extracts and to be a control group, ascorbic acid (vitamin C) was used as a positive control group, and methanol was used to replace DPPH as the background value. The scavenging efficiency of caffeamide derivatives on free radicals was examined by the formula blow, and the results are shown in Table 2, FIG. 1a, and FIG. 1b. Scavenging efficiency(%)=[the absorbance of the control group−the absorbance of the experimental group/the absorbance of the control group]×100%.

[2] = test system: human fibroblast Hs68 cells; assay: Scavenging test of ROS free radicals in UVB-irradiated cells; format: cell-based; settings: UVB 80 mJ/cm^2, 24 hours
Procedure: After incubated in an incubator (37° C., 5% CO2) for 24 hours, the ROS level was examined.

MMP-1 = assay: MMP expression, western blot, UVB-irradiated Hs68 cells; format: cell-based, human; settings: 5 μM; UVB 40 mJ/cm^2; 48 hours
Procedure: (§1) Human fibroblast Hs68 cells (5×10^5) (the number of Bioresource Collection and Research Center (BCRC): 60038) were counted and incubated in a culture dish with a diameter of 10 cm (the culture dish components were adjusted by L-glutamine (4 mM) to have 1.5 g/L NaHCO3, 4.5 g/L glucose, and 90% Dulbecco's Modified Eagle's Medium with 10% fetal bovine serum (FBS)). The medium was removed until human fibroblast Hs68 cells grow to a confluence of 80%, and the cells were then washed once with 5 ml PBS (phosphate buffered saline). Then, 3 ml phenol red-free medium which contain different concentrations (0 μM to 25 μM) of the compounds of formula (1) or formula (2) prepared in Example 1 were added into the culture dish. After incubating for 1 hour, the cells were irradiated by UV light (UVB with an intensity of 40 mJ/cm^2) for 15 seconds. Next, the phenol red-free medium which contains different concentrations (0 μM to 25 μM) of the compounds of formula (1) or formula (2) prepared in Example 1 were added into the culture dish sequentially. After incubation in an incubator (37° C., 5% CO2) for 48 hours, the cells were collected.
(§2) The collected cells were treated with a sonication buffer (containing Na3VO4 (100 μM), phenylmethanesulfonyl fluoride (PMSFL, 100 mg/ml), leupeptin (20 mg/ml), Tris-HCl (pH 7.4, 50 μM), NaCl (37.5 μM), DL-dithiothretiol (250 μM), sodium deoxycholate (3 μM), EDTA (1 μM), SDS (0.1%), and Igepal™ CA-630 (Sigma-Aldrich, 1%)) and sonicated to rupture the cell membranes. Then, the organelles and fragments of the cells were precipitated by centrifugation, and the supernatant, which contains proteins in the cytosol was collected. Next, the obtained proteins were separated by SDS-PAGE, and transferred to a membrane by western blotting. Antibodies were used to recognize the targeted proteins, such as MMP-1, MMP-3, MMP-9, and actin. The images were recorded by a Luminescent imagination technology (LAS-4000, FUJIFILM), and the variation of the proteins expression levels were determined by a quantitative analysis software (multi Gauge 2.2, Steware Technology Inc.).

MMP-3 = assay: as above; format: cell-based, human; settings: 5 μM; UVB 40 mJ/cm^2; 48 hours
Procedure: as §1, §2

p-ERK = assay: Inhibition test of the phosphorylation of MAPK, western blot; format: cell-based, human; settings: UVB 40 mJ/cm^2
Procedure: (§3) It has been known that the skin photo-aging caused by UV rays will increase the content of MMPs in the dermis by the phosphorylation of MAPK. In this experiment, the effect of caffeamide derivative on the phosphorylation of MAPK in the cells was analyzed by western blotting.
(§4) After being treated with the compound of formula (2) prepared in Example 1, the protein expression levels of the MAPKs induced by UVB were inhibited in a concentration dependent way. Specifically, when the concentration of the compound of formula (2) was 10 μM, the expression level of P-ERK was 1.1 times as compared to that of the untreated cells. When the concentration of the compound of formula (2) was 5 μM, the expression levels of p-JNK and p-p38 were both 1.1 times as compared to that of the untreated cells.

p-JNK = assay: as above; format: cell-based, human; settings: UVB 40 mJ/cm^2
Procedure: as §3, §4

p-p38 = assay: as above; format: cell-based, human; settings: UVB 40 mJ/cm^2
Procedure: as §3, §4

c-Fos = assay: Inhibition test of AP-1 gene transcription factors, western blot; format: cell-based, human; settings: 5 μM; UVB 40 mJ/cm^2
From the text: (§5) When cells are irradiated by UV rays, JNK, p38 and c-Jun in the cells will translocated into the nucleus, and c-For will translocate into the nucleus under the regulation of ERK and p38. The two subunits of c-Jun and c-Fos will combine to form an AP-1 gene transcription factor to participate in gene expression process and increase the mRNA transcription level of MMP-1. On the other hand, the two subunits can also reduce the gene expression level of procollagen al of Type I collagen. Therefore, in this experiment, the expression of AP-1 in the nucleus was analyzed by western blotting.
(§6) However, after the cells were treated with the compound of formula (2) prepared in Example 1, the protein expression levels of c-Fos, p-c-Jun, and c-Jun induced by UVB were inhibited in a concentration dependent way. Specifically, when the concentration of the compound of formula (2) was 10 μM, the expression level of c-Fos was 1.1 as compared to that of the untreated cells.

c-Jun = assay: as above; format: cell-based, human; settings: UVB 40 mJ/cm^2
From the text: as §5, §6

Smad3 = assay: Promotion test of the expression of collagen, western blot; format: cell-based, human; settings: UVB 40 mJ/cm^2; result in words
Procedure: (§7) It has been known that Smad3 protein can promote the expression level of procollagen-1, and Smad7 protein can inhibit the expression level of Smad3 protein. After cells were irradiated with UV rays, the expression levels of procollagen-1 and Smad3 protein will reduce and the expression level of Smad7 protein will increase. Therefore, in this experiment, the expression levels of intracellular procollagen-1 protein, Smad3 protein and Smad7 protein were analyzed by western blotting.
(§8) Specifically, when the concentration of the compound of formula (2) was 25 μM, the protein expression level of Smad7 was 1.1 times as compared to that of the untreated cells.

Smad7 = assay: as above; format: cell-based, human; settings: UVB 40 mJ/cm^2
Procedure: as §7, §8

procollagen-1 = assay: as above; format: cell-based, human; settings: 25 μM; UVB 40 mJ/cm^2
Procedure: as §7, §8

[3] = test system: human fibroblast Hs68 cells; assay: Cellular toxicity evaluation, MTT assay; format: cell-based; settings: 24 hours
Procedure: MTT (3-(4,5-dimethylthiazol-2-yl)-2,5-diphenyl tetrazolium bromide) assay was used to determine the cellular toxicity of the caffeamide derivatives described herein. First, different concentrations (0 μM to 100 μM) of the compounds of formula (1) or formula (2) prepared in Example 1 of the present invention were added, respectively, into a 96-well microplate which containing human fibroblast Hs68 cells (1×10^4 cells per well). After the cells were incubated in an incubator at 37° C. and 5% CO2 for 24 hours, 15 μl of MTT solution (0.5 mg/ml; dissolved in PBS) was added into the microplate and the human fibroblast Hs68 cells were incubated for 3 hours. Next, 75 μl SDS (sodium dodecyl sulfate) solution (10% SDS was dissolved in 0.01N HCl) was added into the microplate. After the cells were maintained for 24 hours, the absorbances of each well were measured at a wavelength of 570 nm by an enzyme immunoassay analyzer. Finally, the cell survival rate was calculated by the following formula to observe the cellular toxicity of compounds. The results are shown in Table 5, FIG. 10a and FIG. 10b. Cell survival rate(%)=absorbance of the experimental group/absorbance of the control group.

In the case of `O=C1O[C@H]([C@@H](O)CO)C(O)=C1O` [Ascorbic acid, ascorbic acid, reference compound], the “Scavenging efficiency (%)” value ([1]; 25 μM) is reported as 57.5 ± 1.4% and the “Scavenging efficiency (%)” value ([1]; 50 μM) is reported as 89.8 ± 0.9%.
With `O=C(C=Cc1ccc(O)c(O)c1)NCCc1ccccc1` [Compound of formula (1)] the EC50 ([1]; DPPH free radical scavenging, read-out: SC50 (the source's name)) was 22.1 ± 1.3 µM, the “Concentration of ROS (times compared to the untreated cells)” value ([2]; 5 μM) was 1.2 ± 0.13 times and the “Concentration of ROS (times compared to the untreated cells)” value ([2]; 10 μM) was 1.0 ± 0.21 times. For the same molecule, the “Concentration of ROS (times compared to the untreated cells)” value ([2]; 25 μM) was 0.8 ± 0.07 times, the “Concentration of ROS (times compared to the untreated cells)” value ([2]; 25 μM, listed as compound of formula (1)) was 0.8 times and the “expression level of MMP-1 as compared to that of the untreated cells” value (MMP-1) was 1.0 times. The “expression level of MMP-3 as compared to that of the untreated cells” value (MMP-3) was 1.0 times, the “expression level of p-ERK as compared to that of the untreated cells” value (p-ERK; 10 μM) was 1.2 times and the “expression level of p-ERK as compared to that of the untreated cells” value (p-ERK; 25 μM) was 1.3 times. For the same molecule, the “expression level of p-JNK as compared to that of the untreated cells” value (p-JNK; 10 μM) was 1.2 times, the “expression level of p-JNK as compared to that of the untreated cells” value (p-JNK; 25 μM) was 0.8 times and the “expression level of p-p38 as compared to that of the untreated cells” value (p-p38; 10 μM) was 1.2 times. The “expression level of p-p38 as compared to that of the untreated cells” value (p-p38; 25 μM) was 1.0 times, the “expression level of c-Fos as compared to that of the untreated cells” value (c-Fos) was 1.1 times and the “expression level of c-Jun as compared to that of the untreated cells” value (c-Jun; 10 μM) was 1.1 times. For the same molecule, the “expression level of c-Jun as compared to that of the untreated cells” value (c-Jun; 25 μM) was 1.2 times, the “effect on protein expression level of Smad3” value (Smad3) was “not affected” and the “protein expression level of Smad7 as compared to that of the untreated cells” value (Smad7; 5 μM) was 1.2 times. The “protein expression level of Smad7 as compared to that of the untreated cells” value (Smad7; 10 μM) was 0.7 times, the “protein expression level of Smad7 as compared to that of the untreated cells” value (Smad7; 25 μM) was 0.7 times and the “protein expression level of procollagen-1 decreased by UVB, reversed to” value (procollagen-1) was 0.7 times. For the same molecule, the “Cell survival rate (%)” value ([3]; 5 μM) was 99.9 ± 1.8%, the “Cell survival rate (%)” value ([3]; 10 μM) was 99.5 ± 4.6% and the “Cell survival rate (%)” value ([3]; 25 μM) was 104.2 ± 3.7%. The “Cell survival rate (%)” value ([3]; 50 μM) was 107.8 ± 1.2%.
